Measured values as given in ChEMBL document CHEMBL3885881, “DrugMatrix”.

Species on record: Rattus norvegicus
Test: DrugMatrix - Regimen: Daily Repeat
Type: toxicity, organism-based, Sprague-Dawley
Set-up: regimen Daily Repeat, gender Male, age 6-8 weeks
Settings: in vivo, sc, route subcutaneous, […]; for SODIUM / TOTAL BILIRUBIN / TOTAL PROTEIN / URIC ACID / ALANINE AMINOTRANSFERASE / ALBUMIN / ALKALINE PHOSPHATASE / ASPARTATE AMINOTRANSFERASE / BLOOD UREA NITROGEN / CARBON DIOXIDE / CHLORIDE / CHOLESTEROL / CREATINE PHOSPHOKINASE / CREATININE / GLUCOSE / LACTATE DEHYDROGENASE / LIPASE / PHOSPHORUS / POTASSIUM: tissue Plasma; for ABSOLUTE BASOPHIL / ABSOLUTE EOSINOPHIL / ABSOLUTE LYMPHOCYTE / ABSOLUTE MONOCYTE / ABSOLUTE SEGMENTED NEUTROPHIL / BASOPHIL / EOSINOPHIL / ERYTHROCYTE COUNT / HEMATOCRIT / HEMOGLOBIN / LEUKOCYTE COUNT / LYMPHOCYTE / MEAN CORPUSCULAR HEMOGLOBIN / MEAN CORPUSCULAR HEMOGLOBIN CONCENTRATION / MEAN CORPUSCULAR VOLUME / MONOCYTE / NEUTROPHIL / NUCLEATED RED BLOOD CELLS / PLATELET COUNT: tissue Blood
[1] = 2 mg/kg, 120 h, dose level M2, time 5 day
[2] = 25 mg/kg, 72 h, dose level High, time 3 day
[3] = 25 mg/kg, 120 h, dose level High, time 5 day
[4] = 72 h, dose 0.25 mg/Kg, dose level M1, time 3 day
[5] = 120 h, dose 0.25 mg/Kg, dose level M1, time 5 day

C[C@]12CC[C@@H]3c4ccc(OC(=O)c5ccccc5)cc4CC[C@H]3[C@@H]1CC[C@@H]2O [ESTRADIOL BENZOATE]
SODIUM [1]: 141.87 MEQ/L | TOTAL BILIRUBIN [1]: 0.13 mg/dL | TOTAL PROTEIN [1]: 5.93 G/DL | URIC ACID [1]: 2.07 mg/dL | ABSOLUTE BASOPHIL [2]: 0 CELLS/uL | ABSOLUTE EOSINOPHIL [2]: 0 CELLS/uL | ABSOLUTE LYMPHOCYTE [2]: 7876 CELLS/uL | ABSOLUTE MONOCYTE [2]: 263 CELLS/uL | ABSOLUTE SEGMENTED NEUTROPHIL [2]: 1061 CELLS/uL | BASOPHIL [2]: 0% | EOSINOPHIL [2]: 0% | ERYTHROCYTE COUNT [2]: 5.97 x10E6/uL | HEMATOCRIT [2]: 37% | HEMOGLOBIN [2]: 13.8 G/DL | LEUKOCYTE COUNT [2]: 9.2 x10E3/uL | LYMPHOCYTE [2]: 86% | MEAN CORPUSCULAR HEMOGLOBIN [2]: 23.2 pg | MEAN CORPUSCULAR HEMOGLOBIN CONCENTRATION [2]: 37.33 G/DL | MEAN CORPUSCULAR VOLUME [2]: 62.1 fL | MONOCYTE [2]: 2.67% | NEUTROPHIL [2]: 11.33% | NUCLEATED RED BLOOD CELLS [2]: 0 /100WBC | PLATELET COUNT [2]: 1341 x10E3/uL | ALANINE AMINOTRANSFERASE [2]: 32.33 u/L | ALBUMIN [2]: 4.13 G/DL | ALKALINE PHOSPHATASE [2]: 479.33 u/L | ASPARTATE AMINOTRANSFERASE [2]: 66.67 u/L | BLOOD UREA NITROGEN [2]: 10.33 mg/dL | CARBON DIOXIDE [2]: 29 mmol/L | CHLORIDE [2]: 101.33 MEQ/L | CHOLESTEROL [2]: 26.67 mg/dL | CREATINE PHOSPHOKINASE [2]: 407.67 u/L | CREATININE [2]: 0.16 mg/dL | GLUCOSE [2]: 188.67 mg/dL | LACTATE DEHYDROGENASE [2]: 154.67 u/L | LIPASE [2]: 7.33 u/L | PHOSPHORUS [2]: 11.1 mg/dL | POTASSIUM [2]: 5.86 MEQ/L | SODIUM [2]: 141.4 MEQ/L | TOTAL BILIRUBIN [2]: 0.1 mg/dL | TOTAL PROTEIN [2]: 5.73 G/DL | URIC ACID [2]: 2 mg/dL | ABSOLUTE BASOPHIL [3]: 0 CELLS/uL | ABSOLUTE EOSINOPHIL [3]: 23.33 CELLS/uL | ABSOLUTE LYMPHOCYTE [3]: 7006.67 CELLS/uL | ABSOLUTE MONOCYTE [3]: 182 CELLS/uL | ABSOLUTE SEGMENTED NEUTROPHIL [3]: 921.33 CELLS/uL | BASOPHIL [3]: 0% | EOSINOPHIL [3]: 0.33% | ERYTHROCYTE COUNT [3]: 5.89 x10E6/uL | HEMATOCRIT [3]: 35% | HEMOGLOBIN [3]: 13.6 G/DL | LEUKOCYTE COUNT [3]: 8.13 x10E3/uL | LYMPHOCYTE [3]: 86.33% | MEAN CORPUSCULAR HEMOGLOBIN [3]: 23.13 pg | MEAN CORPUSCULAR HEMOGLOBIN CONCENTRATION [3]: 38.9 G/DL | MEAN CORPUSCULAR VOLUME [3]: 59.43 fL | MONOCYTE [3]: 2.67% | NEUTROPHIL [3]: 10.67% | NUCLEATED RED BLOOD CELLS [3]: 0 /100WBC | PLATELET COUNT [3]: 988.67 x10E3/uL | ALANINE AMINOTRANSFERASE [3]: 53 u/L | ALBUMIN [3]: 5.07 G/DL | ALKALINE PHOSPHATASE [3]: 360 u/L | ASPARTATE AMINOTRANSFERASE [3]: 106.33 u/L | BLOOD UREA NITROGEN [3]: 14 mg/dL | CARBON DIOXIDE [3]: 27.33 mmol/L | CHLORIDE [3]: 98.67 MEQ/L | CHOLESTEROL [3]: 32.67 mg/dL | CREATINE PHOSPHOKINASE [3]: 366.33 u/L | CREATININE [3]: 0.19 mg/dL | GLUCOSE [3]: 130.67 mg/dL | LACTATE DEHYDROGENASE [3]: 223.33 u/L | LIPASE [3]: 7.67 u/L | PHOSPHORUS [3]: 11.37 mg/dL | POTASSIUM [3]: 5.61 MEQ/L | SODIUM [3]: 143.3 MEQ/L | TOTAL BILIRUBIN [3]: 0.1 mg/dL | TOTAL PROTEIN [3]: 7.6 G/DL | URIC ACID [3]: 2.1 mg/dL | ABSOLUTE BASOPHIL [4]: 0 CELLS/uL | ABSOLUTE EOSINOPHIL [4]: 0 CELLS/uL | ABSOLUTE LYMPHOCYTE [4]: 8002.33 CELLS/uL | ABSOLUTE MONOCYTE [4]: 146.33 CELLS/uL | ABSOLUTE SEGMENTED NEUTROPHIL [4]: 218 CELLS/uL | BASOPHIL [4]: 0% | EOSINOPHIL [4]: 0% | ERYTHROCYTE COUNT [4]: 6.05 x10E6/uL | HEMATOCRIT [4]: 38.6% | HEMOGLOBIN [4]: 15.03 G/DL | LEUKOCYTE COUNT [4]: 8.37 x10E3/uL | LYMPHOCYTE [4]: 95.67% | MEAN CORPUSCULAR HEMOGLOBIN [4]: 24.83 pg | MEAN CORPUSCULAR HEMOGLOBIN CONCENTRATION [4]: 39.03 G/DL | MEAN CORPUSCULAR VOLUME [4]: 63.73 fL | MONOCYTE [4]: 1.67% | NEUTROPHIL [4]: 2.67% | NUCLEATED RED BLOOD CELLS [4]: 0 /100WBC | PLATELET COUNT [4]: 1109.67 x10E3/uL | ALANINE AMINOTRANSFERASE [4]: 61.67 u/L | ALBUMIN [4]: 4.2 G/DL | ALKALINE PHOSPHATASE [4]: 323.67 u/L | ASPARTATE AMINOTRANSFERASE [4]: 81.33 u/L | BLOOD UREA NITROGEN [4]: 11.33 mg/dL | CARBON DIOXIDE [4]: 26.33 mmol/L | CHOLESTEROL [4]: 75.67 mg/dL | CREATINE PHOSPHOKINASE [4]: 295 u/L | CREATININE [4]: 0.23 mg/dL | GLUCOSE [4]: 126 mg/dL | LACTATE DEHYDROGENASE [4]: 285.67 u/L | LIPASE [4]: 12.33 u/L | PHOSPHORUS [4]: 10.4 mg/dL | TOTAL BILIRUBIN [4]: 0.1 mg/dL | TOTAL PROTEIN [4]: 6.03 G/DL | URIC ACID [4]: 0.43 mg/dL | ABSOLUTE BASOPHIL [5]: 0 CELLS/uL | ABSOLUTE EOSINOPHIL [5]: 45.33 CELLS/uL | ABSOLUTE LYMPHOCYTE [5]: 12282.67 CELLS/uL | ABSOLUTE MONOCYTE [5]: 135 CELLS/uL | ABSOLUTE SEGMENTED NEUTROPHIL [5]: 937 CELLS/uL | BASOPHIL [5]: 0% | EOSINOPHIL [5]: 0.33% | ERYTHROCYTE COUNT [5]: 5.99 x10E6/uL | HEMATOCRIT [5]: 37.83% | HEMOGLOBIN [5]: 14.7 G/DL | LEUKOCYTE COUNT [5]: 13.4 x10E3/uL | LYMPHOCYTE [5]: 91.67% | MEAN CORPUSCULAR HEMOGLOBIN [5]: 24.53 pg | MEAN CORPUSCULAR HEMOGLOBIN CONCENTRATION [5]: 38.87 G/DL | MEAN CORPUSCULAR VOLUME [5]: 63.13 fL | MONOCYTE [5]: 1% | NEUTROPHIL [5]: 7% | NUCLEATED RED BLOOD CELLS [5]: 0 /100WBC | PLATELET COUNT [5]: 1305.33 x10E3/uL | ALANINE AMINOTRANSFERASE [5]: 47.67 u/L | ALBUMIN [5]: 4 G/DL | ALKALINE PHOSPHATASE [5]: 486.33 u/L | ASPARTATE AMINOTRANSFERASE [5]: 78.33 u/L | BLOOD UREA NITROGEN [5]: 15.33 mg/dL | CARBON DIOXIDE [5]: 22.67 mmol/L | CHLORIDE [5]: 104.33 MEQ/L | CHOLESTEROL [5]: 33 mg/dL | CREATINE PHOSPHOKINASE [5]: 654 u/L | CREATININE [5]: 0.27 mg/dL | GLUCOSE [5]: 190 mg/dL | LACTATE DEHYDROGENASE [5]: 308 u/L | LIPASE [5]: 9 u/L | PHOSPHORUS [5]: 12.63 mg/dL | POTASSIUM [5]: 4.9 MEQ/L | SODIUM [5]: 143.3 MEQ/L | TOTAL BILIRUBIN [5]: 0.1 mg/dL | TOTAL PROTEIN [5]: 5.73 G/DL | URIC ACID [5]: 1.6 mg/dL
